In US7695918B2 (priority 2002, dated 2010):
Like-named read-outs stand apart in the source and are kept apart here.

What was measured:
[1] = biological target: recPrP (recombinant protein prion) (Homo sapiens, UniProt P04156); settings: recPrP 42 μM diluted with an equivalent volume of streptomycin 1 g/ml; dried on mica
protein prion [2] = biological target: protein prion (Homo sapiens, UniProt P04156); assay type: binding; settings: LCR
protein prion [3] = assay type: binding, human; settings: 50 μg/ml final concentration streptomycin; LCR(+) at any proteinase K concentration, LCR(−) only without digestion
PrP^sc [4] = assay type: binding, bovine
PrP^sc [5] = tested on: PrP^sc
PrP^sc [6] = settings: precipitates, ESB bovine brain homogenate
PrP^sc [7] = biological target: PrP^sc (Ovis aries, UniProt P23907); assay type: binding; settings: 2000 μg streptomycin; PrP^sc from 920 μg sheep brain afflicted with trembling; from increase of apparent molecular weight
Sequence of PrP^sc (Ovis aries, UniProt P23907) (P23907 25-233 limits assumed): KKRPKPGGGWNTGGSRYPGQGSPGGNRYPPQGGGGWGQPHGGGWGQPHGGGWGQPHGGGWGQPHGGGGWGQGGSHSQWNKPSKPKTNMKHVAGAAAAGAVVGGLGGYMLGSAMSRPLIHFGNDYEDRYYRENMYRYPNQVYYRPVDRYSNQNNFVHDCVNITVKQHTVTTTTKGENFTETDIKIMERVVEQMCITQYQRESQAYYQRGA

[H]/N=C(/N)N[C@H]1[C@H](O)[C@@H](O)[C@H](O[C@@H]2O[C@@H](C)[C@](O)(C=O)[C@H]2O[C@@H]2O[C@@H](CO)[C@H](O)[C@@H](O)[C@@H]2NC)[C@@H](N/C(N)=N\[H])[C@@H]1O [streptomycin]
surface organization of the film of the recPrP/streptomycin mixture [1]: amorphous surface | apparent size of the protein prion band after streptomycin treatment (protein prion [2]; 0.1 g/ml streptomycin, no proteinase K digestion): approximately 50 kDa | binding of streptomycin to the protein prion (protein prion [2]; absence of digestion by proteinase K, streptomycin 0.1 and 0.2 g/ml): bonds well to the protein prion | apparent molecular mass of the band observed after streptomycin treatment (protein prion [3]): approximately 35 kDa | precipitation of PrP^sc (PrP^sc [4]; 20 μl streptomycin at 1 g/ml, 100 μl bovine brain suspension after proteinase K, second hour at 37° C.): totally precipitated the PrP^sc | location of PrP^sc bands (supernatant or bottom) (PrP^sc [4]; brain sample diluted 1/25, proteinase K and streptomycin added simultaneously, one hour incubation): in the bottom in the presence of any concentration of streptomycin | detection of PrP^sc compared with the reference technique (PrP^sc [5]): permits better detection of cases that are slightly positive | dilution down to which PrP^sc is detectable (PrP^sc [6]; 5 μl streptomycin, without streptomycin the limit is 1/16): 1/128 | dilution down to which PrP^sc is detectable (PrP^sc [6]; 10 μl streptomycin, most diluted sample tested): 1/256 | number of streptomycin molecules attached per band of PrP^sc (PrP^sc [7]): 10 to 12 molecules of streptomycin per band of PrP^sc
